Source: patent EP0237239A2, “New compounds” (THE WELLCOME FOUNDATION LIMITED, priority 1986, dated 1987)
Structures can show the parent of a compound that is named as a salt.

Target: T1, angiotension converting enzyme (Cavia porcellus, UniProt H0UWL7)
T1 construct: from tissue; host or cells: guinea pig ileum
T1 sequence (H0UWL7 33-1302): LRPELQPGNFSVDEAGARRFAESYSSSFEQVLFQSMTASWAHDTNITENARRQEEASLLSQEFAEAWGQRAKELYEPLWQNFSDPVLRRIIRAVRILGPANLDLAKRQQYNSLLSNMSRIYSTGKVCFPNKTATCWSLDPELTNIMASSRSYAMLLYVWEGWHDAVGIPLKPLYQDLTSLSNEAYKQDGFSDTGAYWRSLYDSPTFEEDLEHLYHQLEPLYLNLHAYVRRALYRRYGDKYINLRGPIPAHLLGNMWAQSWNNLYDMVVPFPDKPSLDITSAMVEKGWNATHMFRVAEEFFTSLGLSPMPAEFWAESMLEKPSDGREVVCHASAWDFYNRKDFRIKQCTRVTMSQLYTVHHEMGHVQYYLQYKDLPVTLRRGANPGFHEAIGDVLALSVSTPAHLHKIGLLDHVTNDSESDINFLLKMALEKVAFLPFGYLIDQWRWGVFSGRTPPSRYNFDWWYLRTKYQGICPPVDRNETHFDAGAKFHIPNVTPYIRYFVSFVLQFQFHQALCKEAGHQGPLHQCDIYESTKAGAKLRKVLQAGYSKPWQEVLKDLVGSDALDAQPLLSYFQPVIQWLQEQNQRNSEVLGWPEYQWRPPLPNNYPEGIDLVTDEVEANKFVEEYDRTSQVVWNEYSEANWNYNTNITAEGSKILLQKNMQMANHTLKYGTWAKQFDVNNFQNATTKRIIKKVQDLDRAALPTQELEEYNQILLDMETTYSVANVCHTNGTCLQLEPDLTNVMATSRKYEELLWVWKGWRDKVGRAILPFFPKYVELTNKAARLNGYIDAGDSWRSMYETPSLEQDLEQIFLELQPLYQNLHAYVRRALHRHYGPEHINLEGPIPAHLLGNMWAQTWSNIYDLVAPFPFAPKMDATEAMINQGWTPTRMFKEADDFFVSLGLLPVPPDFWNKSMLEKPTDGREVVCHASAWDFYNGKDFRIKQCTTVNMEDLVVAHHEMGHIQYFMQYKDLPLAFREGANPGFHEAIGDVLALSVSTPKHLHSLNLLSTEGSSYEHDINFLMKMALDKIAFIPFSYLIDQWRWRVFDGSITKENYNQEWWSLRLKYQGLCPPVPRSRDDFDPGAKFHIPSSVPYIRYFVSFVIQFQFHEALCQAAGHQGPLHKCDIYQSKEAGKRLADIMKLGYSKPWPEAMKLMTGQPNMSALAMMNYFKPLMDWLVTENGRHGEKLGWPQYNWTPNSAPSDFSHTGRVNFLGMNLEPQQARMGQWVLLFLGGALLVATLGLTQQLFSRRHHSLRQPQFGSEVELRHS
Assay: angiotensin converting enzyme inhibition in guinea pig ileum (inhibition of contractile responses to Angiotensin I)
Type: cell-based
Settings: dose-dependent inhibition of contractile responses to Angiotensin I, in vitro, read-out: EC50 (the source's name)
Source text: (b) ACE inhibition in vitro
In any assay for angiotension converting enzyme inhibition in guinea pig ileum, dose-dependent inhibition of contractile responses to Angiotensin I gave the following results: […]

IC50	SMILES
0.0096 µM	CC(C)NCC(O)COc1cccc2ccc(CNCCCC[C@H](NC(C)C(=O)N3CCC[C@H]3C(=O)O)C(=O)O)cc12 (stereo partly drawn) [Example 5, N-(1(S)-Carboxy-5-[8-(2(S,R)-hydroxy-3-isopropylaminopropoxy)naphth-2-ylmethylamino]pentyl)-(S,R)-alanyl-(S)-proline tristrifluoroacetate]
0.0135 µM	CC(C)NCC(O)COc1cccc2c(OCC(=O)NCCCC[C@H](NC(C)C(=O)N3CCC[C@H]3C(=O)O)C(=O)O)cccc12 (stereo partly drawn) [Example 2, N-(l(S)-Carboxy-5-(2-[5-(2(S,R)-hydroxy-3-isopropylaminopropoxy)-naphth-1-yloxy]acetamido)pentyl)-(S,R)-alanyl-(S)-proline dihydrochloride acetate hemihydrate]
